ChEMBL document CHEMBL4480433, “Investigation of B,C-ring truncated deguelin derivatives as heat shock protein 90 (HSP90) inhibitors for use as anti-breast cancer agents” (Bioorg Med Chem, 2019)
Calls of active or inactive are those of the source. The calls are words filed in the database; no cut-off is given here.

Tests used:
[1] = target: T1, Heat shock protein HSP90 (Homo sapiens) (UniProt P07900+P08238); assay: Inhibition of HSP90 in human H1299 cells assessed as reduction in HIF-1alpha at 100 nM incubated for 72 hrs and subsequently incubated under hypoxic conditions for 12 hrs by Western blot analysis relative to control; type: cell-based; settings: values are per cent of control
[2] = target: T1, Heat shock protein HSP90 (Homo sapiens); assay: Inhibition of HSP90 in human H1299 cells assessed as reduction in HIF-1alpha incubated for 72 hrs and subsequently incubated under hypoxic conditions for 12 hrs by Western blot analysis relative to control; type: cell-based
[3] = target: T1, Heat shock protein HSP90 (Homo sapiens); assay: Inhibition of HSP90 in human H1299 cells assessed as reduction in HIF-1alpha at 10 nM incubated for 72 hrs and subsequently incubated under hypoxic conditions for 12 hrs by Western blot analysis relative to control; type: cell-based; settings: values are per cent of control
[4] = test system: 4T1; assay: Cytotoxicity against mouse 4T1 cells at 10 uM after 72 hrs by MTS assay; type: functional, cell-based
[5] = test system: MDA-MB-231; assay: Inhibition of HSP90 in human MDA-MB-231 cells assessed as reduction in phosphorylated-MEK/total-MEK ratio at 5 to 10 uM after 72 hrs by immunoblot analysis; type: cell-based; settings: Hofmanni bacterium
[6] = test system: MDA-MB-231; assay: Inhibition of HSP90 in human MDA-MB-231 cells assessed as reduction in phosphorylated-STAT3/total-STAT3 ratio at 5 to 10 uM after 72 hrs by immunoblot analysis; type: cell-based
[7] = test system: MDA-MB-231; assay: Cytotoxicity against human MDA-MB-231 cells at 10 uM after 72 hrs by MTS assay; type: functional, cell-based
[8] = test system: MDA-MB-231; assay: Effect on ERK protein level in human MDA-MB-231 cells at 2 to 10 uM after 72 hrs by immunoblot analysis; type: functional, cell-based
[9] = test system: MDA-MB-231; assay: Inhibition of HSP90 in human MDA-MB-231 cells assessed as reduction in phosphorylated-AKT/total-AKT ratio at 5 to 10 uM after 72 hrs by immunoblot analysis; type: cell-based
[10] = test system: MDA-MB-231; assay: Induction of morphological changes in human MDA-MB-231 cells assessed as cytoplasmic shrinkage at 2 to 10 uM after 72 hrs by phase contrast microscopic analysis; type: functional, cell-based
[11] = test system: MDA-MB-231; assay: Inhibition of ERK phosphorylation in human MDA-MB-231 cells at 5 to 10 uM after 72 hrs by immunoblot analysis; type: cell-based

| response, % of control [1] | response, % of control [3] | SMILES | also measured |
| --- | --- | --- | --- |
| 60.3% | 72.9% | COc1ccc(N(CCN2CCOCC2)C(=O)c2ccc3c(c2OC)C=CC(C)(C)O3)nc1OC | inhibition [2]: Dose-dependent effect |
| 83.7% | – | COc1ccc(N(CCN2CCCCC2)C(=O)c2ccc3c(c2OC)C=CC(C)(C)O3)cc1OC | – |
| 33.3% | 64% | COc1ccc(N(CCN)C(=O)c2ccc3c(c2OC)C=CC(C)(C)O3)nc1OC | inhibition [2]: Dose-dependent effect |
| 75.9% | – | CNCCN(C(=O)c1ccc2c(c1OC)C=CC(C)(C)O2)c1ccc(OC)c(OC)c1 | – |
| 85.7% | – | COc1ccc(N(Cc2cccc(F)c2)C(=O)c2ccc3c(c2OC)C=CC(C)(C)O3)nc1OC | – |
| 66% | – | COc1ccc(N(CCN2CCCC2)C(=O)c2ccc3c(c2OC)C=CC(C)(C)O3)nc1OC | – |
| 93.1% | – | COc1ccc(N(C)C(=O)c2ccc3c(c2OC)C=CC(C)(C)O3)c(F)c1OC | – |
| 71% | – | COc1ccc(N(CCN(C)C)C(=O)c2ccc3c(c2OC)C=CC(C)(C)O3)cc1OC | – |
| 70.2% | – | COc1ccc(N(C(=O)c2ccc3c(c2OC)C=CC(C)(C)O3)c2ccc(F)cc2)cc1OC | – |
| 107% | – | CNCCN(C(=O)c1ccc2c(c1OC)C=CC(C)(C)O2)c1ccc(OC)c(OC)c1F | – |
| 80.2% | – | COc1ccc(N(Cc2cccc(Cl)c2)C(=O)c2ccc3c(c2OC)C=CC(C)(C)O3)nc1OC | – |
| 57.2% | 69.3% | COc1ccc(N(CCOCc2ccccc2)C(=O)c2ccc3c(c2OC)C=CC(C)(C)O3)nc1OC | inhibition [2]: Dose-dependent effect |
| 53.3% | 97.9% | COc1ccc(N(CCN(C)C)C(=O)c2ccc3c(c2OC)C=CC(C)(C)O3)c(F)c1OC | – |
| 88.4% | – | COc1ccc(NC(=O)c2ccc3c(c2OC)C=CC(C)(C)O3)nc1OC | – |
| 52.5% | – | COCCN(C(=O)c1ccc2c(c1OC)C=CC(C)(C)O2)c1ccc(OC)c(OC)n1 | – |
| 147% | – | COc1ccc(N(CCN)C(=O)c2ccc3c(c2OC)C=CC(C)(C)O3)c(F)c1OC | – |
| 77% | – | COc1ccc(CN(C(=O)c2ccc3c(c2OC)C=CC(C)(C)O3)c2ccc(OC)c(OC)n2)cc1 | – |
| 54.3% | – | COc1ccc(N(CCN2CCCCC2)C(=O)c2ccc3c(c2OC)C=CC(C)(C)O3)c(F)c1OC | – |
| 58.9% | – | COc1ccc(N(C(=O)c2ccc3c(c2OC)C=CC(C)(C)O3)c2ccc(C)cc2)cc1OC | – |
| 57.4% | – | COc1ccc(N(CCNC(=O)OC(C)(C)C)C(=O)c2ccc3c(c2OC)C=CC(C)(C)O3)nc1OC | – |
| 70.3% | – | COc1ccc(N(CCNC(=O)OC(C)(C)C)C(=O)c2ccc3c(c2OC)C=CC(C)(C)O3)cc1OC | – |
| 62.3% | 90.4% | COc1ccc(N(C)C(=O)c2ccc3c(c2OC)C=CC(C)(C)O3)nc1OC | – |

| response, % of control [1] | response, % of control [3] | SMILES | also measured |
| --- | --- | --- | --- |
| 79.7% | – | COc1ccc(N(CCN2CCCCC2)C(=O)c2ccc3c(c2OC)C=CC(C)(C)O3)nc1OC | – |
| 55.2% | 108% | COc1ccc(N(Cc2ccncc2)C(=O)c2ccc3c(c2OC)C=CC(C)(C)O3)nc1OC | – |
| 37.9% | 75.5% | COc1ccc(N(CCN(C)C)C(=O)c2ccc3c(c2OC)C=CC(C)(C)O3)nc1OC | inhibition [2]: Dose-dependent effect |
| 45.3% | 111% | COc1ccc(N(CCCN)C(=O)c2ccc3c(c2OC)C=CC(C)(C)O3)nc1OC | – |
| 42.2% | 97.2% | COc1ccc(N(CCN2CCN(C)CC2)C(=O)c2ccc3c(c2OC)C=CC(C)(C)O3)nc1OC | – |
| 54.9% | – | COc1ccc(N(CCN2CCNCC2)C(=O)c2ccc3c(c2OC)C=CC(C)(C)O3)c(F)c1OC | – |
| 87.9% | – | COc1ccc(N(CCO)C(=O)c2ccc3c(c2OC)C=CC(C)(C)O3)nc1OC | – |
| 60.8% | – | COc1ccc(N(Cc2ccccc2)C(=O)c2ccc3c(c2OC)C=CC(C)(C)O3)c(F)c1OC | – |
| 59.3% | – | COCCN(C(=O)c1ccc2c(c1OC)C=CC(C)(C)O2)c1ccc(OC)c(OC)c1F | – |
| 52.8% | 83.7% | COc1ccc(N(C(=O)c2ccc3c(c2OC)C=CC(C)(C)O3)c2ccccc2)cc1OC | – |
| 117% | – | COc1ccc(N(CCN2CCOCC2)C(=O)c2ccc3c(c2OC)C=CC(C)(C)O3)cc1OC | – |
| 57.6% | – | COc1ccc(N(Cc2ccc(Cl)cc2)C(=O)c2ccc3c(c2OC)C=CC(C)(C)O3)nc1OC | – |
| 147% | – | COc1ccc(NC(=O)c2ccc3c(c2OC)C=CC(C)(C)O3)cc1OC | – |
| 71.1% | – | COc1ccc(N(Cc2ccc(C)cc2)C(=O)c2ccc3c(c2OC)C=CC(C)(C)O3)nc1OC | – |
| 127% | – | COc1ccc(N(CCNC(C)=O)C(=O)c2ccc3c(c2OC)C=CC(C)(C)O3)cc1OC | – |
| 95.8% | – | COc1ccc(N(Cc2cccnc2)C(=O)c2ccc3c(c2OC)C=CC(C)(C)O3)nc1OC | – |
| 58.1% | 66% | COc1ccc(N(CCNC(C)=O)C(=O)c2ccc3c(c2OC)C=CC(C)(C)O3)nc1OC | inhibition [2]: Dose-dependent effect |
| 59.4% | – | COc1ccc(N(CCN2CCNCC2)C(=O)c2ccc3c(c2OC)C=CC(C)(C)O3)nc1OC | – |
| 61.9% | – | COc1ccc(N(C(=O)c2ccc3c(c2OC)C=CC(C)(C)O3)c2ccc(OC)c(OC)c2)cc1 | – |
| 100% | – | COc1ccc(N(CCCN)C(=O)c2ccc3c(c2OC)C=CC(C)(C)O3)cc1OC | – |
| 38.6% | 83.4% | COc1ccc(N(Cc2ccccc2)C(=O)c2ccc3c(c2OC)C=CC(C)(C)O3)nc1OC | – |
| 44% | 65.6% | COc1ccc(N(CCCN(C)C)C(=O)c2ccc3c(c2OC)C=CC(C)(C)O3)nc1OC | inhibition [2]: Dose-dependent effect |

| response, % of control [1] | response, % of control [3] | SMILES | also measured |
| --- | --- | --- | --- |
| 69.8% | – | COc1ccc(N(Cc2ccccc2)C(=O)c2ccc3c(c2OC)C=CC(C)(C)O3)cc1OC | – |
| 97% | – | COc1ccc(N(Cc2ccccn2)C(=O)c2ccc3c(c2OC)C=CC(C)(C)O3)nc1OC | – |
| 65.4% | – | COc1ccc(N(CCOCc2ccccc2)C(=O)c2ccc3c(c2OC)C=CC(C)(C)O3)c(F)c1OC | – |
| 64.4% | – | CCN(CC)CCN(C(=O)c1ccc2c(c1OC)C=CC(C)(C)O2)c1ccc(OC)c(OC)n1 | – |
| 65.5% | – | COCCN(C(=O)c1ccc2c(c1OC)C=CC(C)(C)O2)c1ccc(OC)c(OC)c1 | – |
| 126% | – | COc1ccc(N(C)C(=O)c2ccc3c(c2OC)C=CC(C)(C)O3)cc1OC | – |
| 81.2% | – | COc1ccc(N(C(=O)c2ccc3c(c2OC)C=CC(C)(C)O3)c2ccc(Cl)cc2)cc1OC | – |
| 63.1% | 104% | COc1ccc(N(Cc2ccc(F)cc2)C(=O)c2ccc3c(c2OC)C=CC(C)(C)O3)nc1OC | – |
| 41.2% | 93% | CNCCN(C(=O)c1ccc2c(c1OC)C=CC(C)(C)O2)c1ccc(OC)c(OC)n1 | – |
| 76.6% | – | COc1ccc(N(CCCNC(C)=O)C(=O)c2ccc3c(c2OC)C=CC(C)(C)O3)nc1OC | – |
| 48.8% | 111% | COc1ccc(N(CCN2CCOCC2)C(=O)c2ccc3c(c2OC)C=CC(C)(C)O3)c(F)c1OC | – |
| 39.4% | 62.1% | COc1ccc(N(CCN)C(=O)c2ccc3c(c2OC)C=CC(C)(C)O3)cc1OC | inhibition [2]: Dose-dependent effect |
| 133% | – | COc1ccc(N(CCO)C(=O)c2ccc3c(c2OC)C=CC(C)(C)O3)cc1OC | – |
| 61.9% | – | COc1ccc(N(CCN2CCN(C)CC2)C(=O)c2ccc3c(c2OC)C=CC(C)(C)O3)cc1OC | – |
| 53.7% | 81.2% | COc1ccc(N(CCN2CCN(C)CC2)C(=O)c2ccc3c(c2OC)C=CC(C)(C)O3)c(F)c1OC | – |
| 74.4% | – | COc1ccc(N(CCOCc2ccccc2)C(=O)c2ccc3c(c2OC)C=CC(C)(C)O3)cc1OC | – |
| 55.2% | 97.2% | COc1ccc(N(CCC2CCNCC2)C(=O)c2ccc3c(c2OC)C=CC(C)(C)O3)nc1OC | – |
| 124% | – | COc1ccc(N(CCO)C(=O)c2ccc3c(c2OC)C=CC(C)(C)O3)c(F)c1OC | – |
| 51.9% | 60.6% | COc1ccc(N(CCN2CCNCC2)C(=O)c2ccc3c(c2OC)C=CC(C)(C)O3)cc1OC | Activity [4]: Active; inhibition [5]: Active; inhibition [6]: Active; Activity [7]: Active; Activity [8]: inactive; inhibition [2]: Dose-dependent effect; inhibition [9]: Active; Activity [10]: Active; inhibition [11]: Active |
| 101% | – | COc1ccc(NC(=O)c2ccc3c(c2OC)C=CC(C)(C)O3)c(F)c1OC | – |
| 68.5% | – | COc1ccc(N(CCCN)C(=O)c2ccc3c(c2OC)C=CC(C)(C)O3)c(F)c1OC | – |
